{"source": "patent US10426773B2", "about": "“Systems pharmacology for treating ocular disorders” (Case Western Reserve Univeristy, priority 2011, dated 2019)", "key": {"[1]": {"test_system": "BALB/c mice", "test": "Light-induced retinal degeneration in BALB/c mice, SLO autofluorescence imaging", "assay_type": "in vivo, mouse", "settings": "DOX 10, GUB 2.0, SQ 0.5 mg/kg, 7 days after light", "method": "SLO (Heidelberg Engineering) was carried out for in vivo whole fundus imaging of mouse retinas. […] Numbers of autofluorescent spots were counted and subjected to statistical analyses as described below.\nThese drugs were administered to 4-week-old BALB/c mice by intraperitoneal injection 30 min prior to white light exposure at 10,000 lux for 1 h. Retinal morphology was assessed 7 days after light exposure by OCT imaging and histological examination."}, "[2]": {"test_system": "ROS generation in photoreceptors of Abca4−/−Rdh8−/− mice", "test": "In vivo detection of ROS (DHE probe) in retinas of light-exposed Abca4−/−Rdh8−/− mice", "parameters": "species or system mouse", "settings": "Example 3; DOX 10 mg/kg, GUB 2.0 mg/kg, SQ 0.5 mg/kg ip 30 min prior to light", "protocol": "The ROS probe, DHE, at a dose of 20 mg/kg body weight was administered to Abca4^−/−Rdh8^−/− mice via intraperitoneal injection 30 min prior to light exposure. Eye cups obtained after removing the cornea, lens and vitreous body from enucleated eye globes 3 h post light illumination were fixed in 4% paraformaldehyde. Cryosections were prepared from fixed eye cups and cut at 12 am thickness for microscopic assessment of ROS signal fluorescence in the retina.\nThe ROS probe, DHE, at a dose of 20 mg/kg body weight in 25 μl of DMSO, was administered to Abca4^−/−Rdh8^−/− mice via intraperitoneal injection 1 h prior to light exposure. Eye cups obtained after removing the cornea, lens, and vitreous body from enucleated eye globes 3 h post light illumination were fixed in 4% paraformaldehyde. Cryosections were prepared from fixed eye cups and cut at 12-am thickness for microscopic assessment of ROS fluorescence in the retina with ImageJ software (National Institutes of Health)."}, "[3]": {"test": "Quantification of selected drugs in mouse serum and eye by LC-MS", "assay_type": "in vivo, C57BL/6J WT mice", "method": "C57BL/6J WT mice at 6 weeks of age (Jackson Laboratory) were treated with DOX, GUB, or SQ at a single dose of 10, 2, and 0.5 mg per kilogram, respectively. The compound was dissolved in 50% DMSO in PBS (137 mM NaCl, 2.7 mM KCl, 0.67 mM […]). Next, to precipitate excess proteins, 0.3 ml of methanol was added to both the eye homogenate and 0.1 ml of serum. Samples were vortexed for 30 s followed by centrifugation for 15 min at 16,000 g. Clear supernatants were collected and used directly for LC-MS analysis. 2HPO4/KH2PO4, pH 7.4) and administrated by intraperitoneal injection. Thirty minutes later the mice were anesthetized. Blood samples were collected using the technique of cardiac puncture and subsequently centrifuged (5 min, 16,000 g) to collect serum. Prior to harvesting eyes, mice were intracardially perfused with PBS to minimalize blood contamination. Eye balls were immediately homogenized in 0.1 ml of PBS. The homogenate and serum samples were spiked with 100 pmols of internal standard (IS) (parazosin—2-[4-(2-furoyl)piperazin-1-yl]-6,7-dimethoxyquinazolin-4-amine (Sigma Aldrich) or clenbuterol—(RS)-1-(4-Amino-3,5-dichlorophenyl)-2-(tert-butylamino)ethanol (Sigma Aldrich)) for DOX, GUB or SQ quantification, respectively.\nMass spectrometry (MS) based detection and quantification of DOX, GUB, and SQ was performed with a L×Q linear ion trap mass spectrometer (Thermo Scientific) equipped with an electrospray ionization (ESI) interface and coupled to Agilent 1100 HPLC (Agilent Technologies). Separation of drugs and the internal standards was achieved on a reverse phase C18 Phenomenex HPLC column (250×4.60 mm; 5 μm) by a linear gradient of to 100% acetonitrile in water within 15 min at flow rate of 0.5 ml/min. All solvents contained 0.1% formic acid (v/v). The HPLC effluent was sprayed into the MS via an ESI probe operated in the positive ionization mode. Parameters of ionization and detection were tuned with synthetic standards for the drugs to achieve the highest possible sensitivity. Dox and parazosin (internal standard) were detected by selected reaction monitoring (SRM) using m/z 452.2→344.2 and 384.2→247.1 transitions whereas GUB, SQ and their corresponding IS, clenbuterol, was by fragmentation at m/z 231.1→214.0, 206.1→136.0, and 277.1→259.1, respectively. The elution times for DOX, GUB, and SQ were ˜12.8, 12.3, and 10.8 min, respectively. Both internal standards eluted at 12.0 min (FIG. 34). Calibration curves were calculated based on the linear relationship between ratios of SRM ion intensity peak area corresponding to the selected drug and the IS vs. molar ratios of the compounds in the range of 20-500 pmol (FIG. 34H)."}}}
{"smiles": "COc1cc2nc(N3CCN(C(=O)C4COc5ccccc5O4)CC3)nc(N)c2cc1OC.CS(=O)(=O)O", "note": "(centres unmarked) [Doxazosin]", "values": [{"measurement": "autofluorescent spots by SLO", "setting": "[1]", "value": "prevented"}, {"measurement": "ROS generation in photoreceptors (DHE signal)", "setting": "[2]", "value": "decreased"}, {"measurement": "Eye ± SD", "setting": "[3]; 30 min after a single ip dose: DOX 10, GUB 2, SQ 0.5 mg per kilogram, mice perfused with PBS", "value": "11.0 ± 1.7", "unit": "pmol/eye"}, {"measurement": "concentration at 30 min", "setting": "[3]; C57BL/6J, mouse, serum, intraperitoneal, 30 min after a single ip dose: DOX 10, GUB 2, SQ 0.5 mg per kilogram, read-out: Serum ± SD", "value": "465 ± 128", "unit": "nM"}, {"measurement": "amount in eye compared with level in 0.1 mL of serum", "setting": "[3]; eye volume taken as about 0.1 mL", "value": 5, "unit": "times lower"}]}
